Key:
[1] = system: perméabilité des parois des vaisseaux sanguins; assay: Ambrose and De Eds method: time of appearance of Trypan blue at chloroform-irritated skin; format: in vivo, lapin; details: voie orale, suspension, rabbit, maximum of activity about 6 to 7 h after administration
Description: Nous avons utilisé une méthode dérivée de celle décrite par AMBROSE et DE EDS [J. Pharm. Exp. Ther. 90, 359 (1947)] . Un lapin mâle fauve, d'un poids compris entre 2,0 et 2,5 kg, est épilé sur toute la région ventrale à l'aide d'une pâte au sulfure de baryum. Le lendemain l'animal reçoit, en injection intraveineuse 25mg/kg d'une'solution aqueuse de Bleu Trypan à 1 p. 100. Trente minutes après cette injection,on applique pendant 30 secondes un tampon de coton de 1,2 cm de côté, imbibé de chloroforme, en deux ou trois points de la zone êpi- lée, et on note le temps d'apparition de la couleur bleue.
Ce temps doit être sensiblement constant quel que soit le point d'application du tampon et traduit la plus ou moins grande rapidité avec laquelle le colorant quitte le courant sanguin pour imprégner les tissus sous-cutanés.
Le produit à tester est alors aussitôt administré soit par voie intra-péritonéale, soit par voie orale. L'agent irritant est appliqué de nouveau, à des intervalles de quinze minutes, en d'autres points de la zone épilée : on note à chaque fois le temps d'apparition de la coloration bleue.
On opère en principe sur des lots de sept lapins par dose et par produit. Il est à noter que : • - la réponse à l'agent irritant n'étant pas forcément identique selon le point d'application sur l'abdomen, il faut faire varier systématiquement "les points témoins" et les "points traités" d'un lapin à l'autre; • - il faut toujours considérer le temps d'apparition de la coloration bleue et non le temps de son développement complet; • - au bout d'une heure d'expérience, et à chaque heure ensuite, il faut refaire une injection intraveineuse de Bleu Trypan de 1ml de solution aqueuse à 1 p.100; • - chaque lapin est son propre témoin.
Le protocole opératoire précédent a été utilisé et les doses suivantes ont été administrées : 500 mg et 1.000 mg/kg. La biflavanone (I) a été ingérée sous forme de solution aqueuse additionnée de 5 % de gomme adragante. Les résultats sont évalués en pourcentage d'augmentation du temps d'apparition de la couleur bleue au niveau du point d'application par rapport au temps de base mesuré avant traitement, et comparés à des substances de référence administrées dans les mêmes conditions catéchine hydrate, hespéridine, quercétine, rutine. Les résultats sont consignés dans le tableau ci-dessous, le maximum d'activité étant obtenu 6 à 7 heures environ après l'administration du produit.

[2] = target: T1, aldose-réductase extraite de cristallins de rats (Rattus norvegicus, UniProt P07943); assay: Aldose reductase inhibition in vitro (NADPH disappearance); format: biochemical; details: rat lens enzyme, pH 7, 25°C, 10 min preincubation, substrate aldéhyde d-glycérique; read-out: inhibition à 50 %
T1 construct: l'aldose-réductase extraite de cristallins de rats; from tissue; host or cells: rat lens (CD River rats)
Description: L'activité inhibitrice d'aldose-réductase des composés de la présente invention a été mise en évidence par des essais in vitro sur l'aldose-réductase […] selon la technique […] et J.H. KINOSHITA, J. Biol. Chem. 240 (1965) 877, […] et J.H. KINOSHITA, Biochemical Pharmacolo- gy 5 (1976) 2505-2613. : La biflavanone (I), mise en suspension dans du tampon pH 7, est placée en incubation à 25°C dans un […] bouché contenant l'aldose-réductase […] CD River. Après 10 mn de contact, le substrat ([…] introduit dans la cuve deré- action. La cinétique enzymatique est appréciée par la disparition, du milieu, du co-facteur Ac. Nicotinamide-adénine diphosphorique réduite (NADPH) selon la réaction : [drawing 6] On calcule l'activité enzymatique par détermination de la quantité de NADPH disparue. Les résultats sont exprimés en pourcentage de l'activité enzymatique de la préparation en l'absence de tout inhibiteur. Dans ces conditions on peut déterminer, par exemple, la dose minimale qui inhibe à 50 % l'activité enzymatique.

[3] = High-dose toxicity, intraperitoneal administration, rat; details: in vivo, ip, rat Sprague Dawley, male, read-out: dose maximale toujours tolérée
Description: Elle a été déterminée sur des groupes homogènes de souris Swiss et NMRI mâles, de race pure, pesant de 19 à 22 g et sur des groupes homogènes de rats Sprague Dawley màles adultes d'un poids moyen de 300 g..
En administration intrapéritonéale, aussi bien chez le rat que chez la souris, la dose maximale toujours tolérée est supérieure à 3 et 4.000 mg/kg.

[4] = system: résistance capillaire; assay: Parrot method: capillary resistance under vitamin P-deficient diet; format: in vivo; details: injection of 50 mg/kg; cobaye; mean of 10 animals; measured 3 to 48 h after administration
Description: Pour mettre en évidence l'action sur la résistance capillaire, nous avons utilisé […]. PARROT et coll. [C.R. Soc. Biol. 140 750 (1946)]. Elle consiste à étudier les variations de la résistance capillaire chez le cobaye soumis à un […] vitaminique P(C2), mais équilibré en vitamine C. La résistance capillaire est mesurée au niveau de la région lombaire en appliquant sur la peau, préalablement épilée, une ventouse de verre de 5 mm de diamètre. On détermine la valeur de la dépression, exprimée en cm de mercure; qu'il faut réaliser pour […], au bout de 50 secondes environ, 3 […] sur la surface entourée. Cette dépression […] comprise entre 25 et 35 cm de mercure, mais elle chute à 10 cm de Hg chez les animaux soumis au […]é pendant 10 jours. […] L'élévation de la résistance capillaire et sa durée sont […]- quement par la valeur de la surface obtenue en portant sur un système de coordonné[…]. On a constaté […] surface est de 20,8 cm ^2 après injection de 50 mg/kg de biflavanone (I), […] que la même dose de rutine ne donne que 6,42 cm^2.

[5] = system: perméabilité des parois des vaisseaux sanguins; assay: Beach and Steinetz method: Trypan blue content of chloroform-irritated skin; format: in vivo, lapin; details: rabbit
Description: La technique d'AMBROSE et DE EDS a été modifiée afin de mesurer la coloration de la tache selon la technique de BEACH et STEINETZ [(J. Pharm. Expl. Therap. (1961) 131, n° 1, p. 400 à 406)]. Des lapins New-Zealand mâles de 2,5 kg reçoivent une injection IP de produit à tester, ou d'eau gommée pour les témoins.
Trente minutes après, sur la peau abdominale.préalablement épilée, un tampon de chloroforme est appliqué trente secondes, afin de créer une irritation locale qui favorise la diffusion du colorant hors des capillaires vers les liquides interstitiels.
Immédiatement après,une solution de Bleu Trypan à 25mg/kg est injectée dans la veine marginale de l'oreille. Une tache bleue apparait à l'endroit irrité. Le lapin est tué par Einjection intracardiaque de pentobarbital, 30 minutes après l'injection du Bleu Trypan.
Les fragments de peau sont prélevés, posés et laissés à digérer 24 heures dans HCI pur. Le Bleu Trypan est dosé selon la technique de BEACH et STEINETZ.
Après la dissolution complète, l'addition de 3 ml de chlorure de Benzalkonium en solution aqueuse à 12,80 % complexe le colorant qui est ensuite repris par 5 ml de chloroforme. Après centrifugation, la phase chloroformique bleue est rapidement soutirée et filtrée, la lecture spectrophotométrique est faite immédiatement afin d'éviter une concentration du colorant par évaporation du chloroforme. Les densités optiques à 620 mn sont traduites en µg de bleu/100 mg de tissu.
Le protocole opératoire précédent a été utilisé et les doses 200 et 400 mg ont été administrées. Les résultats, exprimés en ng de colorant par 100 g de peau fraiche sont donnés dans le tableau suivant : […]

[6] = system: perméabilité capillaire; assay: Lefebvre technique: appearance of a dye at an intradermal histamine injection site; format: in vivo; details: intraperitoneal 100 mg/kg, rat
Description: D'autres tests, utilisés chez le rat, ont confirmé les possibilités de la biflavanone dans la diminution de la perméabilité capillaire par rapport aux produits de référence classiques, et notamment les tests réalisés selon la technique de […]. Soc. Biol. 1, 183 (1962)] qui consiste à observer l'apparition d'un colorant au niveau d'une injection intradermique d'histamine. Il a été constaté que l'infection intrapéritonéale de 100 mg/kg de biflavanone (I) […]'apparition de la coloration de 70 % . La rutine a la même dose ne provoque qu'un retard de 12 %

[7] = I.P. 200 mg/kg, eau gommée control 4,62 ± 1,4
[8] = I.P. 400 mg/kg, eau gommée control 5,01 ± 2,3

Row | SMILES | Augmentation % du temps d'apparition par rapport au temps témoin ([1]; 1.000 mg/kg) | Augmentation % du temps d'apparition par rapport au temps témoin ([1]; 500 mg/kg) | IC50 [2] | also measured
1 | Oc1cc(O)c2c(c1)O[C@H](c1ccc(O)c(O)c1)[C@@H](O)C2 [Catéchine hydrate] | 50% | 38% | – | –
2 | O=C(O)CN1C(=O)c2cccc3cccc(c23)C1=O [Alrestatine, alrestatine] | – | – | 1000 nM | –
3 | COc1ccc([C@@H]2CC(=O)c3c(O)cc(O[C@@H]4O[C@H](CO[C@@H]5O[C@@H](C)[C@H](O)[C@@H](O)[C@H]5O)[C@@H](O)[C@H](O)[C@H]4O)cc3O2)cc1O [Hespé-ridine, hespéridine] | 0% | 0% | – | –
4 | O=C1c2c(O)cc(O)c(C3C(=O)c4c(O)cc(O)cc4OC3c3ccc(O)c(O)c3)c2OC(c2ccc(O)c(O)c2)C1O (stereo not drawn) [Biflavanone (I), manniflavone] | 125% | 50% | 100 to 250 nM | MTD [3]: > 3 mg/kg; surface (élévation de la résistance capillaire et sa durée, planimétrie) [4]: 20,8 cm^2; CON[…] BLEU TRYPAN [5, 7]: 4 ± 2,3 µg/100 g DE PEAU; CON[…] BLEU TRYPAN [5, 8]: 3,1 ± 2,3 µg/100 g DE PEAU; retard de l'apparition de la coloration [6]: 70%
5 | COc1ccc(-c2cc(=O)c3c(O)cc(O[C@@H]4O[C@H](CO[C@@H]5O[C@@H](C)[C@H](O)[C@@H](O)[C@H]5O)[C@@H](O)[C@H](O)[C@H]4O)cc3o2)cc1O [Diosmine, diosmine] | – | – | 50000 to 100000 nM | CONCENTRATION DU BLEU TRYPAN [5, 7]: 2,66 ± 2 µg/100 g DE PEAU; CONCENTRATION DU BLEU TRYPAN [5, 8]: 2,50 ±1,6 µg/100 g DE PEAU
6 | O=c1c(O)c(-c2ccc(O)c(O)c2)oc2cc(O)cc(O)c12 [Quercé-tine, quercétine] | 0% | 0% | – | –
7 | C[C@@H]1O[C@@H](OC[C@H]2O[C@@H](Oc3c(-c4ccc(O)c(O)c4)oc4cc(O)cc(O)c4c3=O)[C@H](O)[C@@H](O)[C@@H]2O)[C@H](O)[C@H](O)[C@H]1O [Rutine, rutine] | 77% | 27% | – | surface (élévation de la résistance capillaire et sa durée, planimétrie) [4]: 6,42 cm^2; CONCENTRATION DU BLEU TRYPAN [5, 7]: 3,6 ± 1,8 µg/100 g DE PEAU; CONCENTRATION DU BLEU TRYPAN [5, 8]: 3,2 ± 2 µg/100 g DE PEAU; retard de l'apparition de la coloration [6]: 12%
